Legend:
[1] = test system: mouse peritoneal macrophages; test: In-vitro assay of macrophage mediated cytotoxicity ([125I]IdUrd radioactive release assay); type: cell-based
Procedure: FMLP was purchased from Sigma Chemical Co. The stock solution (10 mM) was made in methanol and stored at -70° before use. For free form use, the stock solution was diluted to concentrations between 10^-4 M and 10^-7 M with CMEM containing 5% FBS. […]
Macrophage mediated cytotoxicity was assessed by a radioactive release assay as described in Sone S. and Fidler I. J., Cell Immunology 57, 42 (1981). Target cells in exponential growth phase were incubated for 24 h in medium supplemented with [^125 I]IdUrd (0.2 μCi/ml; specific activity, 200 mCi/mmol; New England Nuclear, Boston, Mass.). The cells then were washed 3 times with warm HBSS to remove unbound radiolabel, harvested by a short trypsinization (0.25% Difco trypsin and 0.02% EDTA for 1 min at 37°), and resuspended in CMEM containing 5% FBS. Viable cells were plated into the wells containing macrophages to achieve a population density of 2500 macrophages and 250 tumor cells per sq mm (or an initial macrophage:target cell ratio of 10/1). At this population density, normal (untreated) macrophages are not cytotoxic to neoplastic cells. No significant differences were detected in the plating efficiency (binding) of [^125 I]IdUrd-labeled target cells to control or liposome-treated macrophage populations. Radiolabeled target cells also were plated alone as an additional control group. The macrophage-target cell cultures were refed with medium 24 h after the addition of the target cells to remove all nonplated cells and then were incubated for up to 3 days at 37°. At this time, the cultures were washed twice with HBSS to remove […], and the remaining viable, adherent cells were lysed with 0.1 ml of 0.1N NaOH. The lysate was absorbed in a cotton swab and placed directly into 10×75 mm tubes; radioactivity was measured in a gamma counter. […] The cytotoxic activity of the macrophages was calculated as follows: [formula] Experimental results were analyzed for their statistical significance by Student's 2-tailed t test.

[2] = test system: mouse peritoneal macrophages; test: as above; type: cell-based; settings: for cpm +/- S.D.: 10^-8 M FMLP, radioactivity of remaining viable target tumor cells

With `CSCC[C@H](NC=O)C(=O)N[C@@H](CC(C)C)C(=O)N[C@@H](Cc1ccccc1)C(=O)O` [Free FMLP, N-formyl-L-methionyl-L-leucyl-L-phenylalanine] the “cpm +/- S.D.” value ([1]; 10^-4 M FMLP, Expt. I) was 2478 + 74 cpm, the “cpm +/- S.D.” value ([1]; 10^-4 M FMLP, Expt. II) was 2263 + 361 cpm and the “cpm +/- S.D.” value ([1]; 10^-5 M FMLP, Expt. I) was 2619 + 82 cpm. The “cpm +/- S.D.” value ([1]; 10^-5 M FMLP, Expt. II) was 2455 + 106 cpm, the “cpm +/- S.D.” value ([1]; 10^-6 M FMLP, Expt. I) was 2633 + 61 cpm and the “cpm +/- S.D.” value ([1]; 10^-6 M FMLP, Expt. II) was 2408 + 32 cpm. For the same compound, the “cpm +/- S.D.” value ([1]; 10^-7 M FMLP, Expt. I) was 2559 + 109 cpm, the “cpm +/- S.D.” value ([1]; 10^-7 M FMLP, Expt. II) was 2298 + 178 cpm and the “cpm +/- S.D.” value ([2]; Expt. I) was 2567 + 70 cpm. The “cpm +/- S.D.” value ([2]; Expt. II) was 2441 + 32 cpm and the “activation of mouse macrophages to lyse target tumor cells” value ([2]; all FMLP concentrations (10^-8 to 10^-4 M), 72 hours of co-cultivation) was “ineffective in rendering macrophages tumoricidal”.

From patent publication US4916118A, “Pharmaceutical administration systems containing chemotactic peptides” (Board of Regents, The University of Texas System, priority 1987, dated 1990)
